Patent EP4725508A1, “LIGAND-DRUG CONJUGATE HAVING FREE PAYLOAD RECOVERY UNIT” (RemeGen Co., Ltd., priority 2024, dated 2025)
Square brackets hold non-standard residues; d marks the D form. Peptide text beside a SMILES is read from it. * marks the point of attachment. Dolaproine = CO[C@@H]([C@@H]1CCCN1)[C@@H](C)C(=O)O; Dil = CC[C@H](C)[C@H](NC)[C@@H](CC(=O)O)OC; X1 = C[C@@H](N*)[C@@H](O)c1ccccc1; NMeV = CN[C@H](C(=O)O)C(C)C

Key:
[1] = system: HCC1954; assay: Cell killing activity; type: cell-based
[2] = system: humanized antibody ABC3320 (Heavy chain: SEQ ID NO: 163; Light chain: SEQ ID NO: 164); assay: Blocking experiment (ELISA, OVA-MMAF coated); type: binding; settings: MMAE+ antibody; OVA-MMAF coated 200 ng/mL; antibody 100 ng/mL; control in Tables 6, 8, 10, 12
Procedure: (§1) Blocking Experiment: OVA-MMAF was coated onto ELISA plates at a concentration of 200 ng/mL and incubated at 37°C for 1 h. The plates were blocked with 5% skim milk and incubated at 37°C for 2 h. The antibody was diluted to a final concentration of 100 ng/mL. MMAE and MMAE-Linker were diluted at concentrations of 600, 200, 66.67, 22.22, 7.41, 2.47, 0.82, 0.27, 0.09, 0.03, and 0.01 nM. 50 µL MMAE + 50 µL chimeric antibody and 50 µL MMAE-Linker + 50 µL chimeric antibody were added respectively to the ELISA plates. The total volume per well was 100 µL. The plates were incubated at 37°C for 1 h. Goat Anti-Human IgG H&L (HRP) (abcam, ab6858) diluted at 1:5000 was added, incubated at 37°C for 1 h, and then subjected to TMB color development. The OD value was determined at 450 nm.
(§2) Blocking Experiment: The experimental steps were the same as the above blocking experiment.

[3] = target: humanized antibody ABC3320 (Heavy chain: SEQ ID NO: 163; Light chain: SEQ ID NO: 164); assay: Biacore determination, binding affinity with free MMAE; settings: antibody immobilized with ProA probe; free MMAE 50-1.85 nM
Procedure: (§3) Antibody immobilization: 20 µg/mL of antibody was immobilized onto the chip surface using a ProA probe; Binding: Antigen MMAE concentrations were 50, 16.7, 5.5, 1.85, and 0 nM. The flow rate was set at 30 µL/min, and the contact time was 600 s; Dissociation: The chip was washed with HEPES buffer for 300 s. Regeneration: Regeneration was performed with 10 mM Glycine-HCl.

[4] = target: chimeric antibody No. 44; assay: as above; design: species or system mouse; settings: antibody immobilized with ProA probe; free MMAE 50-1.85 nM
Procedure: as §3

[5] = target: chimeric antibody No. 89; assay: as above; design: species or system mouse; settings: antibody immobilized with ProA probe; free MMAE 50-1.85 nM
Procedure: as §3

[6] = target: chimeric antibody No. 74; assay: as above; design: species or system mouse; settings: antibody immobilized with ProA probe; free MMAE 50-1.85 nM
Procedure: as §3

[7] = target: chimeric antibody No. 1; assay: as above; design: species or system mouse; settings: antibody immobilized with ProA probe; free MMAE 50-1.85 nM
Procedure: as §3

[8] = target: chimeric antibody No. 92; assay: as above; design: species or system mouse; settings: antibody immobilized with ProA probe; free MMAE 50-1.85 nM
Procedure: as §3

[9] = target: chimeric antibody No. 69; assay: as above; design: species or system mouse; settings: antibody immobilized with ProA probe; free MMAE 50-1.85 nM
Procedure: as §3

[10] = target: chimeric antibody No. 62 (VH SEQ ID NO: 1, VL SEQ ID NO: 5); assay: as above; design: species or system mouse; settings: antibody immobilized with ProA probe; free MMAE 50-1.85 nM
Procedure: as §3

[11] = target: chimeric antibody No. 93; assay: as above; design: species or system mouse; settings: antibody immobilized with ProA probe; free MMAE 50-1.85 nM
Procedure: as §3

[12] = system: OVCAR3; assay: Cell killing activity; type: cell-based
[13] = system: chimeric antibody No. 133 (VH SEQ ID NO: 46, VL SEQ ID NO: 49); assay: Blocking experiment (ELISA, OVA-MMAF coated); type: binding, mouse; settings: MMAE+antibody; OVA-MMAF coated 200 ng/mL; antibody 100 ng/mL
Procedure: as §1, §2

[14] = system: chimeric antibody No. 93 (VH SEQ ID NO: 35, VL SEQ ID NO: 38); assay: Blocking experiment (ELISA, OVA-MMAF coated); type: binding, mouse; settings: MMAE+antibody; OVA-MMAF coated 200 ng/mL; antibody 100 ng/mL
Procedure: as §1, §2

[15] = system: chimeric antibody No. J4 (VH SEQ ID NO: 21, VL SEQ ID NO: 25); assay: Blocking experiment (ELISA, OVA-MMAF coated); type: binding, mouse; settings: MMAE+antibody; OVA-MMAF coated 200 ng/mL; antibody 100 ng/mL
Procedure: as §1, §2

[16] = system: chimeric antibody No. 92 (VH SEQ ID NO: 28, VL SEQ ID NO: 32); assay: Blocking experiment (ELISA, OVA-MMAF coated); type: binding, mouse; settings: MMAE+antibody; OVA-MMAF coated 200 ng/mL; antibody 100 ng/mL
Procedure: as §1, §2

[17] = system: chimeric antibody No. 132 (VH SEQ ID NO: 39, VL SEQ ID NO: 43); assay: Blocking experiment (ELISA, OVA-MMAF coated); type: binding, mouse; settings: MMAE+antibody; OVA-MMAF coated 200 ng/mL; antibody 100 ng/mL
Procedure: as §1, §2

[18] = system: CHOK1; assay: Cell killing activity; type: cell-based
[19] = system: chimeric antibody No. 64 (VH SEQ ID NO: 8, VL SEQ ID NO: 12); assay: Blocking experiment (ELISA, OVA-MMAF coated); type: binding, mouse; settings: MMAE+antibody; OVA-MMAF coated 200 ng/mL; antibody 100 ng/mL
Procedure: as §1

[20] = system: chimeric antibody No. 62 (VH SEQ ID NO: 1, VL SEQ ID NO: 5); assay: Blocking experiment (ELISA, OVA-MMAF coated); type: binding, mouse; settings: MMAE+antibody; OVA-MMAF coated 200 ng/mL; antibody 100 ng/mL
Procedure: as §1

Structure (SMILES): CC[C@H](C)[C@@H]([C@@H](CC(=O)N1CCC[C@H]1[C@H](OC)[C@@H](C)C(=O)N[C@H](C)[C@@H](O)c1ccccc1)OC)N(C)C(=O)[C@@H](NC(=O)[C@@H](NC)C(C)C)C(C)C [MMAE, monomethyl auristatin E] (H-[NMeV]V[Dil][Dolaproine]-X1)
- MIR (%) [1]: 60.95%
- IC50 ([1]; Homo sapiens): 0.31 nM
- IC50 [2]: 1.37 nM
- Kd [3]: 0.318 nM
- ka [3]: 100000 M⁻¹ s⁻¹
- kd [3]: 3.18e-05 s⁻¹
- Kd [4]: 1.78 nM
- ka [4]: 326000 M⁻¹ s⁻¹
- kd [4]: 0.00058 s⁻¹
- Kd [5]: 2.11 nM
- ka [5]: 61600 M⁻¹ s⁻¹
- kd [5]: 0.00013 s⁻¹
- Kd [6]: 2.14 nM
- ka [6]: 84400 M⁻¹ s⁻¹
- kd [6]: 0.00018 s⁻¹
- Kd [7]: 1.78 nM
- ka [7]: 53500 M⁻¹ s⁻¹
- kd [7]: 9.52e-05 s⁻¹
- Kd [8]: 2.66 nM
- ka [8]: 67300 M⁻¹ s⁻¹
- kd [8]: 0.000179 s⁻¹
- Kd [9]: 2.14 nM
- ka [9]: 70200 M⁻¹ s⁻¹
- kd [9]: 0.00015 s⁻¹
- Kd [10]: 0.741 nM
- ka [10]: 105000 M⁻¹ s⁻¹
- kd [10]: 7.78e-05 s⁻¹
- Kd [11]: 2.81 nM
- ka [11]: 85700 M⁻¹ s⁻¹
- kd [11]: 0.000241 s⁻¹
- MIR (%) [12]: 3.69%
- IC50 ([12]; Homo sapiens, OVCAR-3): 0.31 nM
- IC50 [13]: 1.59 nM
- IC50 [14]: 54.7 nM
- IC50 [15]: 1.89 nM
- IC50 [16]: 83.8 nM
- IC50 [17]: 1.32 nM
- MIR (%) [18]: 83.94%
- IC50 ([18]; Cricetulus griseus, CHO-K1): 34.9 nM
- IC50 [19]: 4.76 nM
- IC50 [20]: 1.43 nM
